From patent US20200345728A1, “COMPOSITIONS AND METHODS FOR TREATMENT OF ATHEROSCLEROSIS” (NovMetaPharma Co., Ltd., priority 2019, published 2020)

Tests used:
[1] = test system: RAW264.7 macrophage cells; assay: Charcoal phagocytosis assay in activated RAW264.7 macrophage cells; assay type: cell-based; conditions: during M1 activation (1 μg/ml LPS/20 ng/ml IFN); 50 μM CHP, 10 μM Zn
Method: RAW264.7 macrophage cells (ATCC® TIB-71) were activated to either inflammatory M1 macrophage phenotype (with 1 μg/ml LPS/20 ng/ml IFN) or to the anti-inflammatory M2 phenotype (with 20 ng/ml IL-4) in the presence or absence of Cyclo-Z (50 μM CHP/10 μM Zn) treatment. Charcoal dust was added to the culture as a marker of M1 phagocytosis activity.
To compare between CHP and Zinc effects in Cyclo-Z on charcoal binding activities, we determined the phagocytosis activity of CHP (50 μM CHP) or Zinc (10 μM Zn) alone or Cyclo-Z during activation of M1 macrophages (with 1 μg/ml LPS/20 ng/ml IFN).

[2] = test system: RAW264.7 macrophage cells; assay: FACS analysis of cell viability in M2 activated RAW264.7 cultures; assay type: cell-based
Method: RAW264.7 macrophage cells, untreated and treated with IL-4 (20 ng/ml), were stained with 1:1000 diluted viability stain (BD Horizon Fixable Viability Stain 660). Cells were analyzed by FACS and gated for unstained (viable) and stained (non-viable) populations.

[3] = DPPH colorimetric anti-oxidant assay; assay type: biochemical; conditions: incubation with DPPH, various concentrations
Description: In this colorimetric assay, DPPH functions as a free radical that can be inactivated by anti-oxidant compounds resulting in loss of color. […] Zinc was not tested alone since it was not completely soluble in the organic solvents needed for the assay. Ascorbic Acid functions as an antioxidant positive control.

VSMCs = assay: Cell viability in VSMCs analyzed by FACS (viability stain); assay type: cell-based; conditions: 45 minutes
Method: (§1) VSMC were seeded (1.25×10^5 cells/well in 12-well plates) and incubated at 37° C. for 24 hr. Cultures were then subjected to various treatments (as shown in Table 1) to induce ROS for 45 minutes (at 37° C.) along with 10 μM CM-H2CFDA (Molecular Probes, Inc., Eugene, Oreg.). CM-H2DCFDA is a chloromethyl derivative of H2DCFDA, useful as an indicator for ROS in cells. Subsequent oxidation of CM-H2CFDA yields a fluorescent adduct that is trapped inside the cell. At the end of treatment period cells were trypsinized, washed, and analyzed by FACS for ROS (CM-H2CFDA fluorescence) and viability using a viability stain (BD Horizon Fixable Viability Stain 660; BD Biosciences, San Jose, Calif.).

ROS in VSMCs = assay: ROS generation in VSMCs analyzed by FACS (CM-H2CFDA fluorescence); assay type: cell-based; conditions: 45 minutes
Method: as §1

[4] = test system: mouse spleen cells (B-cell activation); assay: B-cell activation in mouse spleen cells; assay type: cell-based; conditions: alone, 4 days; LPS 1 μg/ml; Cyclo-Z 50 μM CHP/10 μM Zn
Method: Mouse spleen cells were isolated from wild type C57BL/6J mice (The Jackson Laboratory; strain 000632) and plated under standard cell culture conditions in the presence or absence of Cyclo-Z (50 μM CHP/10 μM zinc) and/or LPS for 4 days. Nodules indicating increased B-cell activation and proliferation were visualized by microscopy.

[5] = added with IL-4 (20 ng/ml), M2 activated

## O=C1N[C@@H](Cc2cnc[nH]2)C(=O)N2CCC[C@@H]12 [CHP, cyclo-Hispro]
[1]
  charcoal uptake (phagocytosis activity): did not show any effects
[2]; [5]
  Percent Non-Viability: 14.13%
  Percent Viability (Stained): 73.63%
[3]
  anti-oxidant activity (DPPH): concentration dependent anti-oxidant activity

## OO [H2O2, hydrogen peroxide]
VSMCs; H2O2 (5 μL) alone
  Viability Population: 22.31
VSMCs; H2O2 (10 μL) alone
  Viability Population: 7.33
ROS in VSMCs; H2O2 (5 μL) alone
  ROS Population: 81.33
ROS in VSMCs; H2O2 (10 μL) alone
  ROS Population: 50.63

## OC[C@H]1OC(O)[C@H](O)[C@@H](O)[C@@H]1O (stereo partly shown) [HG]
VSMCs; HG (50 mM) alone
  Viability Population: 61.63
VSMCs; HG (100 mM) alone
  Viability Population: 63.9
ROS in VSMCs; HG (50 mM) alone
  ROS Population: 0.04
ROS in VSMCs; HG (100 mM) alone
  ROS Population: 0.04

## [Cl-].[Cl-].[Zn+2] [Zinc, ZnCl2]
[1]
  charcoal uptake (phagocytosis activity): somewhat effective
[2]; [5]
  Percent Non-Viability: 33.49%
  Percent Viability (Stained): 58.47%

## IL-4: Interleukin-4, cytokine used to activate macrophages to M2 phenotype
[2]; IL-4 (20 ng/ml) alone
  Percent Non-Viability: 17.63%

## lipopolysaccharide [LPS]
VSMCs; LPS alone
  Viability Population: 75.81
ROS in VSMCs; LPS alone
  ROS Population: 0.09
[4]
  B-cell activation/proliferation (nodules): induced some B-cell activation/proliferation
